Measurements: US4539429A, “Substituted aminophenylalkyl ketones, their preparation and use” (Sterling Drug Inc., priority 1983, dated 1985)
Where two headings read alike, the source gives them in different places.

Columns and labels:
cyclooxygenase = biological target: T1, cyclooxygenase (Rattus norvegicus, UniProt Q63921); assay: Inhibition of cyclooxygenase from rat basophilic leukemia (RBL-1) cells (formation of PGD2, C1); format: biochemical; conditions: cyclooxygenase product PGD2 (C1); for inhibition at 1 µM: read-out: % Inhibition of cyclooxygenase (Cl) formation
T1 construct: Single cell suspensions of RBL-1 cells are homogenized to obtain the microsomal fraction containing lipoxygenase and cyclooxygenase; endogenous in cells; host or cells: RBL-1 (rat basophilic leukemia) cells
T1 sequence (Q63921 27-602): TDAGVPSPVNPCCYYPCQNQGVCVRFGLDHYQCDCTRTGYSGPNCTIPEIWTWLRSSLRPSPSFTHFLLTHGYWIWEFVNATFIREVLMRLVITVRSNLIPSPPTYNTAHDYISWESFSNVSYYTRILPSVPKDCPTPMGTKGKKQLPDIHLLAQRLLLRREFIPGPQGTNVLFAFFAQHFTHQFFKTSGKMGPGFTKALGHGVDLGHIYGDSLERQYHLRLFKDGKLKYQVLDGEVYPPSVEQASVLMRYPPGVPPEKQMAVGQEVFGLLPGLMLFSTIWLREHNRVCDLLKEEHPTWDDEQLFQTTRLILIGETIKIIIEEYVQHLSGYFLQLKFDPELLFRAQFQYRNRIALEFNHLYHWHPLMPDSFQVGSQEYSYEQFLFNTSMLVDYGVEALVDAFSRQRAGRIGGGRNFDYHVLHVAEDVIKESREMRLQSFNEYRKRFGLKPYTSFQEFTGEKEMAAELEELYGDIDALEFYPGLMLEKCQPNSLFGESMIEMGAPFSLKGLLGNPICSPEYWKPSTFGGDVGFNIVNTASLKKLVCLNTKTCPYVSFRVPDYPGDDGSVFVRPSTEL
Description: (§1) The primary screening test used is a determination of the inhibition of lipoxygenase and cyclooxygenase derived from rat basophilic leukemia (RBL-1) cells. The test was carried out according to the following procedure:
(§2) Single cell suspensions of RBL-1 cells are homogenized to obtain the microsomal fraction containing lipoxygenase and cyclooxygenase. Test compounds are added to the enzyme-containing homogenate for a 5 min preincubation period at 37° C. prior to the additon of ^14 C-arachidonic acid substrate. Following incubation at 37° C. for 15 min, the reaction is stopped by the addition of 2M formic acid and the enzyme-substrate products are extracted into chloroform. An aliquot of the extract is evaporated to dryness, reconstituted in ether to 1/10 original volume, spotted on thin layer chromatography plates and chromatographed. The peak areas of radioactivity representing the products are located by scanning the plates. The quantity of products formed is estimated by measuring the height of the radioactivity peaks observed on the chromatographic scans. Alternatively, the areas of radioactivity are scraped from the plate and the ^14 C quantitated by scintillation counting.

lipoxygenase = biological target: T2, lipoxygenase (Rattus norvegicus, UniProt P12527); assay: Inhibition of lipoxygenase from rat basophilic leukemia (RBL-1) cells (formation of L1 5,12-di-HETE and L2 5-HETE); format: biochemical
T2 construct: Single cell suspensions of RBL-1 cells are homogenized to obtain the microsomal fraction containing lipoxygenase and cyclooxygenase; endogenous in cells; host or cells: RBL-1 (rat basophilic leukemia) cells
T2 sequence (P12527 1-673): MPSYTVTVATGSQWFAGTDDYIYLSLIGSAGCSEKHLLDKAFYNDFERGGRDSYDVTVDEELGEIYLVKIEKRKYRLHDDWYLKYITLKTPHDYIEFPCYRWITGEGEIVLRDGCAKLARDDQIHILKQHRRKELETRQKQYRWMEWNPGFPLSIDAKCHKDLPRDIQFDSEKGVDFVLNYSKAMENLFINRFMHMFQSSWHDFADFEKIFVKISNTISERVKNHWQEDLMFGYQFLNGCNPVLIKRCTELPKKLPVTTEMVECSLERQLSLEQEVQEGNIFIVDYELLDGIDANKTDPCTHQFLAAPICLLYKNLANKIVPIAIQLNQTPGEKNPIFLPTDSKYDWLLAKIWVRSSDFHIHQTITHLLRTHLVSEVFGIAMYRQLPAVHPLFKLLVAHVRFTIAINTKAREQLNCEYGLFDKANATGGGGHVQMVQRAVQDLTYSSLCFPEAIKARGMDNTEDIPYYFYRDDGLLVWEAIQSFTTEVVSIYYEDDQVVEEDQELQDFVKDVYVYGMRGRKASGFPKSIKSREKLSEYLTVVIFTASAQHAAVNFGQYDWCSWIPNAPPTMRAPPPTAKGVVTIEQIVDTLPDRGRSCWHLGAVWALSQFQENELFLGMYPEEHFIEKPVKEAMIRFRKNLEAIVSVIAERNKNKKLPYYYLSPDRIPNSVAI
Description: as §1, §2

[1] = test system: SRS-A component of immunologically induced bronchoconstriction; assay: Effect on the SRS-A component of immunologically induced bronchoconstriction in guinea pigs; format: in vivo, guinea pig
Description: The test was carried out according to the following procedure:
Two weeks after immunization with egg albumin, guinea pigs are prepared for bronchoconstriction determination. One hour prior to antigen challenge, each animal is dosed orally with indomethacin and chlorpheniramine. Animals are anesthetized with sodium pentobarbital, the trachea cannulated and the animal artifically respired. Arachidonic acid is administered intravenously prior to antigen challenge. The resulting bronchoconstriction is recorded by the standard lung overflow procedure and the peak increase in intratracheal pressure (mm Hg) over a 10 minute observation period is recorded. Compounds are evaluated for their ability to prevent the increased intratracheal pressure in an experimental group of animals as compared to the medicated (indomethacin+chlorpheniramine+arachidonic acid) control group. The results are expressed in terms of percent inhibition or as ED50 values (effective dose in 50% of the animals).

inhibition at 1 µM (lipoxygenase; 1 μM, L1 = 5,12-di-HETE, read-out: % Inhibition of lipoxygenase (L1) formation) [%] | inhibition at 1 µM (lipoxygenase; 1 μM, L2 = 5-HETE, read-out: % Inhibition of lipoxygenase (L2) formation) [%] | Structure (SMILES) | inhibition at 1 µM (cyclooxygenase) [%] | IC50 (cyclooxygenase) [nM] | ED50 ([1]; Cavia porcellus, iv, indomethacin + chlorpheniramine pretreated, arachidonic acid i.v. before antigen challenge, read-out: In vivo Guinea Pig ED50) [mg/kg] | In vivo Guinea Pig % inhib. ([1]; at 1 mg/kg orally, increased intratracheal pressure vs medicated control group) [%] | IC50 (lipoxygenase) [nM] | inhibition at 1 µM (lipoxygenase; read-out: % Inhibition of lipoxygenase (L1) formation) [%] | inhibition at 1 µM (lipoxygenase; read-out: % Inhibition of lipoxygenase (L2) formation) [%]
61 | 72 | CC(=O)c1ccccc1Nc1ccc(O)cc1 [Example 2c, 1-[2-(4-Hydroxyphenylamino)phenyl]ethanone] | 9 | – | – | – | – | – | –
– | – | COc1ccc(Nc2ccc(O)cc2)c(C(C)=O)c1 [Example 1c, 1-[2-(4-Hydroxyphenylamino)-5-methoxyphenyl]ethanone] | 36 | > 1000 | 2.7 | 52 | 70 | 88 | 88
